Test results taken from patent US11059830B2, “Compounds that participate in cooperative binding and uses thereof” (Revolution Medicines, Inc., priority 2015, dated 2021).

Key:
FKBP12 [1] = molecular target: T1, FKBP12 (Homo sapiens (Human), UniProt P62942); experiment: AlphaLISA FKBP12 binding: inhibition of binding of biotinylated FK506 to FLAG tagged FKBP12; settings: read-out: Binding affinity to FKBP12 (by displacement of FK506)
Description: The binding of compounds of the invention to FKBP12 can be determined using the following protocol.
This protocol utilizes Perkin Elmers AlphaLISA technology platform to detect FKBP binders by measuring the inhibition of binding of biotinylated FK506 to FLAG tagged FKBP12.
10×TBST Buffer (Boston BioProducts IBB-181), Biotinylated FK506 (in-house), FLAG tagged FKBP (in-house); anti-FLAG Donor beads (Perkin Elmer AS103) and Streptavidin Acceptor beads (Perkin Elmer AL125); Compounds in DMSO (in-house), FK506.
Experimental Protocol/Description of Assay: Add 20 uL of 12.5 nM FKBP-FLAG working stock to each well of the 96-well plate. Add 1 uL of test compound (100% DMSO) to each well of the plate using the Janus MTD head and P20 tips (except control wells). Add 1 uL of DMSO to negative control wells and 1 uL of 50 uM FK506 solution to positive control wells. In the dark, add 20 uL of combined Donor/Acceptor beads to each well. Incubate in the dark for 30 minutes at room temperature. In the dark, add 10 uL of 5 nM biotinylated FK506 working stock to each well. Incubate in the dark for 60 minutes at room temperature. Protect plate from light until reading on Biotek Synergy2 Plate Reader; Alphalisa 96-well protocol (680 excitation/615 emission).

FKBP12 [2] = molecular target: T1, FKBP12; experiment: SPR binding of compound (analyte) to immobilized FKBP12 (Example 7); settings: 25° C., 12×HIS tagged FKBP12 immobilized on NTA chip; read-out: SPR affinity to FKBP12: KD
Description: This protocol utilizes Surface Plasmon Resonance (SPR) as a method to determine kinetics (KD, Ka, Kd) for the binding of compound (analyte) to immobilized FKBP12 (ligand).
Compound in 100% DMSO (in-house), 10×HBS-P+ buffer (GE Healthcare BR-1006-71), Assay buffer (1×HBS-P+ buffer, 1% DMSO), 12×HIS tagged FKBP12 (in-house).
(§1) Experiments are performed at 25° C. Stock solution of 12×HIS tagged FKBP12 is diluted to 100 nM in assay buffer (1% DMSO final). Approximately 500-600 RU of FKBP12 is immobilized on one of two flow cells of an activated NTA chip. The second flow cell is not activated as a reference for non-specific interaction of the analyte to the sensor chip. Various concentrations of compound (1 nM-1 μM range), serially diluted into the same assay buffer (1% DMSO final), are injected onto the FKBP12 surface and reference surface at a flow rate of 10 μl/min. The surface is regenerated between analyte injections with 350 mM EDTA.
(§2) The BiaEvaluation software program is used for data fitting. All data is reference subtracted against both the reference flow cell and a buffer injection. For kinetic analyses, data is locally fit to a 1:1 interaction model.

[3] = molecular target: CEP25029.4 (residues 1982-2231) (Homo sapiens (Human), UniProt P62942+Q9BV73); experiment: ITC binding of FKBP12-compound binary complex to CEP250
Description: (§3) This protocol utilizes Isothermal Titration Calorimetry (ITC) to directly measure the heat change associated with binding of FKBP12-Compound 2 and FKBP12-Compound 6 binary complexes to CEP250. Measurement of the heat change allows accurate determination of association constants (Ka), reaction stoichiometry (N), and the change in binding enthalpy (ΔH).
(§4) Compound 2 and Compound 6 in 100% DMSO (in-house), Protein Buffer (10 mM HEPES, pH 7.5, 75 mM NaCl, 0.5 mM TCEP), assay buffer (protein buffer+1% DMSO), FKBP12 (in-house), CEP25029.4 (residues 1982-2231) and CEP25011.4 (residues 2134-2231) (in-house).
(§5) MicroCal™ ITC200 (GE Healthcare) Experimental Protocol: FKBP12 stock solution was diluted to 10 μM in assay buffer (1% DMSO final). Compound was added to FKBP12 to 20 μM (1% DMSO final), and binary complex was filled into the reaction cell of the ITC device after 5-10 min pre-incubation time. CEP250 protein stocks were diluted to 50 μM in assay buffer and supplemented with 20 μM compound (1% DMSO final) before being filled into the injection syringe. A control experiment in the absence of compound was also run to determine the heat associated with operational artifacts and the dilution of titrant as it was injected from the syringe into the reaction cell.

[4] = molecular target: CEP25011.4 (residues 2134-2231) (Homo sapiens (Human), UniProt P62942+Q9BV73); experiment: as above
Description: as §3, §4, §5

FKBP12 [5] = molecular target: T1, FKBP12; experiment: SPR kinetics of Compound 2 and Compound 6 binding to immobilized FKBP12 (Example 8); settings: compound to immobilized FKBP12, 25° C.
Description: This protocol utilizes Surface Plasmon Resonance (SPR) as a method to determine kinetics (KD, Ka, Kd) for the binding of Compound 2 and Compound 6 (analyte) to immobilized FKBP12 (ligand).
Compound 2 and Compound 6 in 100% DMSO (in-house), 10×HBS-P+ buffer (GE Healthcare BR-1006-71), Assay buffer (1×HBS-P+ buffer, 1% DMSO), 12×HIS tagged FKBP12 (in-house).
as §1, with “Compound 2 or Compound 6” for “compound”
as §2

HeLa-FKBP12 cells = experiment: Biosensor cell permeability assay (FKBP destabilizing mutant, whole cell); type: cell-based; settings: 72 hrs
Description: Cell permeability of compounds can be determined using the following protocol.
This protocol utilizes a modified FKBP or cyclophilin destabilizing mutant to determine the bioactivity of FKBP binding compounds or cyclophilin binding compounds in whole cell assay.
DMEM, DMEM without Phenol Red, 10% FBS, 1× Sodium Pyruvate, 1× Glutamax. Add 125 ul of media with compound per well.
Experimental Protocol/Description of Assay: Plate HeLa-FKBP12 cells (for FKBP binding compounds) or HeLa-CyclophilinA cells (for cyclophilin binding compounds) and seed overnight at 5k/well (approximately −18 hrs.). Using a multi-channel pipet, take out the old media and add ˜125 ul of new media with compounds. Compounds are diluted using DMEM without Phenol Red, 10% FBS, 1× Sodium Pyruvate, lx Glutamax. Add 125 ul of media with compound per well. Cells are treated with compounds at concentration: 30, 10, 3.33, 1.11, 0.37, 0.12, 0.04 and 0.013 uM. Time points are taken at 72 hrs and plate read using plate reader with excitation/emission: 575/620.
Cell binding/permeability is calculated in fold-change (Total RFU of treated samples/total RFU of DMSO treated samples or total RFU above background (Total RFU minus total RFU of DMSO treated samples).

CEP25029.4 (residues 1982-2231), sequence (Q9BV73 1982-2231): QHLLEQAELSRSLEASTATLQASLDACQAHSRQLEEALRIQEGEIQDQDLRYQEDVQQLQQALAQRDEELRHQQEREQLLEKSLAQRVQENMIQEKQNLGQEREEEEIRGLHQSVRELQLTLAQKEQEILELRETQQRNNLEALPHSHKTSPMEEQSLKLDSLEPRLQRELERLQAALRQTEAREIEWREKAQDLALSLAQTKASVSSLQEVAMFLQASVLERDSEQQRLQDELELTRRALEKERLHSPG
CEP25029.4 (residues 1982-2231), sequence (P62942 whole entry, the tested form may be a part): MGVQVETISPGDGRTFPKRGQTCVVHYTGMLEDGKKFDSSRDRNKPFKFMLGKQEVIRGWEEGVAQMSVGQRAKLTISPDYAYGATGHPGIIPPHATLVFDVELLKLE
T1 sequence (P62942 whole entry): as the sequence (P62942 whole entry, the tested form may be a part) above
CEP25011.4 (residues 2134-2231), sequence (Q9BV73 2134-2231): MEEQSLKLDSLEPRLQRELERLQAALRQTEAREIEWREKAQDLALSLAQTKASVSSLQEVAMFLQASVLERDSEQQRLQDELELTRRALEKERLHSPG
CEP25011.4 (residues 2134-2231), sequence (P62942 whole entry, the tested form may be a part): as the sequence (P62942 whole entry, the tested form may be a part) above

IC50 (HeLa-FKBP12 cells) [µM]	Compound	IC50 (FKBP12 [1]) [µM]	Kd (FKBP12 [2]) [µM]	other results
	CCC(Cc1ccccc1)C1/C=C/C/C=C/CC(C)C(O)C(C)C2CCC(C)C(O)(CC(=O)N3CCCCC3C(=O)O1)O2 (stereo not shown) [Compound 1]	0.355	0.0715	
	CC[C@H](Cc1ccccc1)[C@@H]1/C=C/C/C=C/C(=O)[C@@H](C)[C@H](O)[C@@H](C)[C@@H]2CC[C@@H](C)[C@@](O)(O2)C(=O)C(=O)N2CCCC[C@H]2C(=O)O1 [Compound 3]	0.00034	0.0013	
	CC[C@H](Cc1ccccc1)[C@@H]1/C=C/C/C=C/C[C@@H](C)[C@H](O)[C@@H](C)[C@@H]2CC[C@@H](C)C(=O)C(O)(O2)C(=O)N2CCC[C@H]2C(=O)O1 [Compound 4]	0.0048	0.0231	
	CC[C@H](Cc1ccccc1)[C@@H]1/C=C/C=C/CC(=O)[C@@H](C)[C@H](O)[C@@H](C)[C@@H]2CC[C@@H](C)C(=O)C(O)(O2)C(=O)N2CCCC[C@H]2C(=O)O1 [Compound 5]	0.0188	0.007	
	CC[C@H](Cc1ccccc1)[C@@H]1CCCCCC[C@@H](C)[C@H](O)[C@@H](C)[C@@H]2CC[C@@H](C)C(=O)C(O)(O2)C(=O)N2CCCC[C@H]2C(=O)O1 [Compound 6, (2S)-1-((4R,7S)-7-((2R,3S,4R,11 S,12R)-12-benzyl-3,11-dihydroxy-4-methyltetradecan-2-yl)-2-hydroxy-4-methyl-3-oxooxepane-2-carbonyl)piperidine-2-carboxylic acid C-11 lactone]			Kd [3]: 0.36 µM; ΔH ([3]; ITC, FKBP12 10 μM in cell, CEP25029.4 118 μM in syringe, ligand 20 μM, 298 K): -58.48 kJ/mol; ΔG ([3]; ITC, FKBP12 10 μM, CEP25029.4 118 μM, ligand 20 μM, 298 K, ΔG = −RT ln Ka): -36.74 kJ/mol; −T*ΔS ([3]; ITC, FKBP12 10 μM, CEP25029.4 118 μM, ligand 20 μM, 298 K, −TΔS = ΔG − ΔH): 21.73 kJ/mol; Kd [4]: 0.08 µM; ΔH ([4]; ITC, FKBP12 10 μM in cell, CEP25011.4 68 μM in syringe, ligand 20 μM, 298 K): -47.78 kJ/mol; ΔG ([4]; ITC, FKBP12 10 μM, CEP25011.4 68 μM, ligand 20 μM, 298 K, ΔG = −RT ln Ka): -40.36 kJ/mol; −T*ΔS ([4]; ITC, FKBP12 10 μM, CEP25011.4 68 μM, ligand 20 μM, 298 K, −TΔS = ΔG − ΔH): 7.41 kJ/mol; koff (FKBP12 [5]): 0.0088 s⁻¹; kon (FKBP12 [5]; read-out: Ka): 567000 M⁻¹ s⁻¹
< 1	CC[C@H](Cc1cccc(O)c1)[C@@H]1/C=C/C/C=C/C[C@@H](C)[C@H](O)[C@@H](C)[C@@H]2CC[C@@H](C)[C@@](O)(O2)C(=O)C(=O)N2CCCC[C@H]2C(=O)O1 [Compound 8]	0.0011		
> 1	CC[C@H](Cc1ccccc1)[C@@H]1/C=C/C/C=C/C[C@@H](C)C(=O)[C@@H](C)[C@@H]2CC[C@@H](C)[C@@](O)(O2)C(=O)C(=O)N2CCCC[C@H]2C(=O)O1 [Compound 9]	0.785		
	CC[C@H](Cc1ccccc1)[C@@H]1CCCCCC(=O)[C@@H](C)[C@H](O)[C@@H](C)[C@@H]2CC[C@@H](C)C(O)(O2)C(=O)C(=O)N2CCCC[C@H]2C(=O)O1 [Compound 10, (S)-1-(2-((2R,3R,6S)-6-((2R,3R,4S,6E,9E,11R,12R)-12-benzyl-3,11-dihydroxy-4-methyl-5-oxotetradeca-6,9-dien-2-yl)-2-hydroxy-3-methyltetrahydro-2H-pyran-2-yl)-2-oxoacetyl)piperidine-2-carboxylic acid C-11 lactone]	0.00021		

Compound	IC50 (HeLa-FKBP12 cells) [µM]	IC50 (FKBP12 [1]) [µM]	Kd (FKBP12 [2]) [µM]	other results
CC[C@H](Cc1cccc(O)c1)[C@@H]1/C=C/C/C=C/C[C@@H](C)[C@H](O)[C@@H](C)[C@@H]2CC[C@@H](C)C(=O)[C@@](O)(O2)C(=O)N2CCCC[C@H]2C(=O)O1 [Compound 7]	< 1	0.00095		
